Assay results published in patent publication US9220262B2, “Use of acylcyclohexanedione carboxylic acid or salts thereof in combination with acylcyclohexanedione carboxylic acid esters for improving the development of gramineous plants” (BASF SE, priority 2008, dated 2015).

Key:
Format in all cases: in vivo
[1] = tested on: Wheat plants of the "Cubus" cultivar; assay: Reduction of shoot growth in winter wheat, greenhouse test
Description: Wheat plants of the “Cubus” cultivar were cultivated in pots of diameter 12 cm on a customary growing substrate. The plants were treated at BBCH development stage 11/12 (1-2 leaves unfolded) at a shoot length of 16 cm as a foliar application with a liquid volume of 750 I/ha. Both prohexadione-Ca (“ProCa”) and trinexapac-ethyl (“TriEt”) were used as technical grade active ingredients. To prepare an applicable spray liquor, the adjuvant LI-700 (Loveland Products, Inc., Greeley, Colo., USA) was added in a concentration of 0.1%. The shoot length of the plants was measured at different times after the treatment. The following results were obtained (data in centimeters): […]

[2] = tested on: Winter wheat of the "Bussard" cultivar; assay: Reduction of shoot growth in winter wheat, field test
Description: Winter wheat of the “Bussard” cultivar was cultivated under field conditions. To “provoke” significant lodging, the supply of the nutrient element nitrogen was deliberately selected too high. The remaining growing conditions corresponded to customary practice. The plants were treated with the inventive active ingredient combination at the BBCH 31/32 development stage (1- to 2-node stage) as a foliar application with a liquid volume of 200 I/ha. Prohexadione-Ca (“ProCa”) (50 g/ha) was used as Regalis (BASF) and trinexapac-ethyl (“TriEt”) (75 g/ha) as Moddus (Syngenta). The shoot length of the plants was measured at various times from the treatment until they were ready for harvest. The following results were obtained (data in centimeters): […]

[3] = tested on: Winter wheat of the "Bussard" cultivar; assay: Degree of stem lodging in winter wheat ready for harvest, field test; details: crops ready for harvest; for Degree of lodging: % lodged area x intensity (0-100) / 100
Description: Winter wheat of the “Bussard” cultivar was cultivated under field conditions. To “provoke” significant lodging, the supply of the nutrient element nitrogen was deliberately selected too high. The remaining growing conditions corresponded to customary practice. The plants were treated with the inventive active ingredient combination at the BBCH 31/32 development stage (1- to 2-node stage) as a foliar application with a liquid volume of 200 I/ha. Prohexadione-Ca (“ProCa”) (50 g/ha) was used as Regalis (BASF) and trinexapac-ethyl (“TriEt”) (75 g/ha) as Moddus (Syngenta). The shoot length of the plants was measured at various times from the treatment until they were ready for harvest. The following results were obtained (data in centimeters):
For crops ready for harvest from the test, the degree of stem lodging was determined. This value is the product of the percentage area in which the wheat plants are no longer upright with the intensity of lodging (0=plants are upright/100=plants lie flat on the ground) divided by 100. The values obtained here likewise lead to the conclusion of a synergistic interaction of the active ingredients involved: […]

[4] = 25 g/ha foliar, 0 days after treatment
[5] = 25 g/ha foliar, 5 days after treatment
[6] = 25 g/ha foliar, 8 days after treatment
[7] = 25 g/ha foliar, 11 days after treatment
[8] = 50 g/ha foliar, 0 days after treatment
[9] = 50 g/ha foliar, 5 days after treatment
[10] = 50 g/ha foliar, 8 days after treatment
[11] = 50 g/ha foliar, 11 days after treatment
[12] = 100 g/ha foliar, 0 days after treatment
[13] = 100 g/ha foliar, 5 days after treatment
[14] = 100 g/ha foliar, 8 days after treatment
[15] = 100 g/ha foliar, 11 days after treatment

Row | Structure (SMILES) | shoot length [1, 4] | shoot length [1, 5] | shoot length [1, 6] | shoot length [1, 7] | shoot length [1, 8] | shoot length [1, 9] | shoot length [1, 10] | shoot length [1, 11] | shoot length [1, 12] | shoot length [1, 13] | shoot length [1, 14] | shoot length [1, 15] | further results
1 | CCC(=O)C1=C([O-])CC(C(=O)[O-])CC1=O.[Ca+2] (stereo not drawn) [ProCa, prohexadione-Ca] | 16 cm | 23.0 cm | 26.6 cm | 31.1 cm | 16 cm | 23.0 cm | 26.3 cm | 29.5 cm | 16 cm | 22.5 cm | 24.0 cm | 25.8 cm | shoot length ([2]; 50 g/ha (as Regalis) foliar, 0 days after treatment): 43.0 cm; shoot length ([2]; 50 g/ha (as Regalis) foliar, 7 days after treatment): 50.0 cm; shoot length ([2]; 50 g/ha (as Regalis) foliar, 21 days after treatment): 69.3 cm; shoot length ([2]; 50 g/ha (as Regalis) foliar, 30 days after treatment): 89.0 cm; shoot length ([2]; 50 g/ha (as Regalis) foliar, 37 days after treatment): 99.5 cm; shoot length ([2]; 50 g/ha (as Regalis) foliar, 49 days after treatment): 119.8 cm; shoot length ([2]; 50 g/ha (as Regalis) foliar, 63 days after treatment): 120.0 cm; Improvement over control [%] (degree of lodging) ([3]; 50 g/ha): 11%; Improvement over control absolute (degree of lodging) ([3]; 50 g/ha): 10; Degree of lodging ([3]; 50 g/ha): 81
2 | CCOC(=O)C1CC(=O)C(=C(O)C2CC2)C(=O)C1 (stereo not drawn) [TriEt, trinexapac-ethyl] | 16 cm | 24.6 cm | 27.9 cm | 32.9 cm | 16 cm | 24.4 cm | 26.5 cm | 31.8 cm | 16 cm | 22.3 cm | 23.6 cm | 28.5 cm | shoot length ([2]; 75 g/ha (as Moddus) foliar, 0 days after treatment): 43.0 cm; shoot length ([2]; 75 g/ha (as Moddus) foliar, 7 days after treatment): 54.5 cm; shoot length ([2]; 75 g/ha (as Moddus) foliar, 21 days after treatment): 76.3 cm; shoot length ([2]; 75 g/ha (as Moddus) foliar, 30 days after treatment): 97.8 cm; shoot length ([2]; 75 g/ha (as Moddus) foliar, 37 days after treatment): 102.8 cm; shoot length ([2]; 75 g/ha (as Moddus) foliar, 49 days after treatment): 119.8 cm; shoot length ([2]; 75 g/ha (as Moddus) foliar, 63 days after treatment): 121.0 cm; Degree of lodging ([3]; 75 g/ha): 93
